The target of this experiment is SSTR5 (Homo sapiens (Human), UniProt P35346). The experiment is described as follows: SSTR5 binding assay. The following applies: CHO-K1 membranes expressing cloned human SSTR5. Summed up: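 Competition binding on membranes from CHO-K1 cells stably expressing cloned human receptor, using radiolabeled somatostatin in 50 mM Tris-HCl pH 7.8 with EGTA, MgCl2 and protease inhibitors. Unlabeled compounds tested from 0.01 nM to 10,000 nM.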

Our source for the IC50 values is patent US8742110B2, “Spiroxazolidinone compounds” (Merck Sharp & Dohme Corp., priority 2010, dated 2014).

Structures can show the parent of a compound that is named as a salt.

SSTR5, sequence (P35346 whole entry): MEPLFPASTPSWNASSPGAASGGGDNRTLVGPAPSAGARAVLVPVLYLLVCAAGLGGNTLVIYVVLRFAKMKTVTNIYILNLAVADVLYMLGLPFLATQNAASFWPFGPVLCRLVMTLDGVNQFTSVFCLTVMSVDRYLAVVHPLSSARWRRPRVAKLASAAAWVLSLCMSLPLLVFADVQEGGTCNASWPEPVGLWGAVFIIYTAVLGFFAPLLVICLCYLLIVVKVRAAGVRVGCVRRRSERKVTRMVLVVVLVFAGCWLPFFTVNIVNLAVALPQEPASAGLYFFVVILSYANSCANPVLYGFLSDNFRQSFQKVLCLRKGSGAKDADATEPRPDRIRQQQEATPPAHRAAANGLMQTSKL

In general, IC50 refers to the concentration at which inhibition is half-maximal. A higher IC50 goes with lower potency. Take `CC1(C)CC(C)(C)c2cc(CN3CCC4(CC3)CN(c3ccc(C(=O)O)cc3)C(=O)O4)ccc2O1` [Example 5-11, 4-{2-Oxo-8-[(2,2,4,4-tetramethyl-3,4-dihydro-2H-chromen-6-yl)methyl]-1-oxa-3,8-diazaspiro[4.5]dec-3-yl}benzoic acid, TFA salt]: the IC50 is 14 nM.

As to `CC1(C)CCc2cc(CN3CCC4(CC3)CN(c3ccc(C(=O)O)cc3)C(=O)O4)ccc2O1` [Example 5-12, 4-{2-Oxo-8-[(2,2-dimethyl-3,4-dihydro-2H-chromen-6-yl)methyl]-1-oxa-3,8-diazaspiro[4.5]dec-3-yl}benzoic acid, TFA salt], the IC50 turned out to be 29.4 nM. This IC50 lies about 2.1-fold higher than the previous one.

Compound `Cc1cc(CN2CCC3(CC2)CN(c2ccc(C(=O)O)cc2)C(=O)O3)cc2c1OCCC2(C)C` [Example 5-13, 4-{2-Oxo-8-[(4,4,8-trimethyl-3,4-dihydro-2H-chromen-6-yl)methyl]-1-oxa-3,8-diazaspiro[4.5]dec-3-yl}benzoic acid, TFA salt] registered an IC50 of 0.317 nM. This IC50 is about 93-fold lower than that of the compound before.

With `CC1(C)CCOc2c(F)cc(CN3CCC4(CC3)CN(c3ccc(C(=O)O)cc3)C(=O)O4)cc21` [Example 5-14, 4-{8-[(8-Fluoro-4,4-dimethyl-3,4-dihydro-2H-chromen-6-yl)methyl]-2-oxo-1-oxa-3,8-diazaspiro[4.5]dec-3-yl}benzoic acid, TFA salt], the IC50 turned out to be 3.62 nM.

For `CC1(C)CCOc2c(Cl)cc(CN3CCC4(CC3)CN(c3ccc(C(=O)O)cc3)C(=O)O4)cc21` [Example 5-15, 4-{8-[(8-Chloro-4,4-dimethyl-3,4-dihydro-2H-chromen-6-yl)methyl]-2-oxo-1-oxa-3,8-diazaspiro[4.5]dec-3-yl}benzoic acid, TFA salt], the IC50 is 1.25 nM.

In turn, `Cc1cc(CN2CCC3(CC2)CN(c2ccc(C(=O)O)cc2)C(=O)O3)cc2c1OCCC2C` (stereo not drawn) [Example 5-16, 4-{8-[(4,8-Dimethyl-3,4-dihydro-2H-chromen-6-yl)methyl]-2-oxo-1-oxa-3,8-diazaspiro[4.5]dec-3-yl}benzoic acid, TFA salt] yielded an IC50 of 1.81 nM.

`O=C(O)c1ccc(N2CC3(CCN(Cc4ccc5c(c4)OCO5)CC3)OC2=O)cc1` [Example 5-17, 4-{8-[(1,3-Benzodioxol-5-yl)methyl]-2-oxo-1-oxa-3,8-diazaspiro[4.5]dec-3-yl}benzoic acid, TFA salt] gave an IC50 of 210 nM. This IC50 is about 120-fold higher than that of the compound before.

The compound `CC1(C)Cc2cc(CN3CCC4(CC3)CN(c3ccc(C(=O)O)cc3)C(=O)O4)ccc2O1` [Example 5-18, 4-{8-[(2,2-Dimethyl-2,3-dihydro-1-benzofuran-5-yl)methyl]-2-oxo-1-oxa-3,8-diazaspiro[4.5]dec-3-yl}benzoic acid, TFA salt] came in with an IC50 of 45.3 nM. This IC50 is about 4.6-fold lower than that of the compound before.

On to `O=C(O)c1ccc(N2CC3(CCN(Cc4n[nH]c5ccc(F)cc45)CC3)OC2=O)cc1` [Example 6-1, 4-{8-[(5-Fluoro-1H-indazol-3-yl)methyl]-2-oxo-1-oxa-3,8-diazaspiro[4.5]dec-3-yl}benzoic acid, TFA salt], for which the IC50 was determined as 1170 nM.

In turn, `COc1ccc2c(CN3CCC4(CC3)CN(c3ccc(C(=O)O)cc3)C(=O)O4)n[nH]c2c1` [Example 6-2, 4-{8-[(6-Methoxy-1H-indazol-3-yl)methyl]-2-oxo-1-oxa-3,8-diazaspiro[4.5]dec-3-yl}benzoic acid, TFA salt] returned a half-inhibitory concentration (IC50) of 1740 nM.

`CCCn1nc(CN2CCC3(CC2)CN(c2ccc(C(=O)O)cc2)C(=O)O3)c2ccc(OC)cc21` [Example 6-3, 4-{8-[(6-Methoxy-1-propyl-1H-indazol-3-yl)methyl]-2-oxo-1-oxa-3,8-diazaspiro[4.5]dec-3-yl}benzoic acid, TFA salt] had an IC50 of 156 nM.

Compound `CCCCn1nc(CN2CCC3(CC2)CN(c2ccc(C(=O)O)cc2)C(=O)O3)c2cc(F)ccc21` [Example 6-4, 4-{8-[(1-Butyl-5-fluoro-1H-indazol-3-yl)methyl]-2-oxo-1-oxa-3,8-diazaspiro[4.5]dec-3-yl}benzoic acid, TFA salt] came in with an IC50 of 98.7 nM.

Compound `CC(C)n1nc(CN2CCC3(CC2)CN(c2ccc(C(=O)O)cc2)C(=O)O3)c2cc(F)ccc21` [Example 6-5, 4-(8-{[5-Fluoro-1-(propan-2-yl)-1H-indazol-3-yl]methyl}-2-oxo-1-oxa-3,8-diazaspiro[4.5]dec-3-yl)benzoic acid, TFA salt] yielded an IC50 of 149 nM.

For the compound `COc1ccc2c(CN3CCC4(CC3)CN(c3ccc(C(=O)O)cc3)C(=O)O4)nn(C(C)C)c2c1` [Example 6-6, 4-(8-{[6-Methoxy-1-(propan-2-yl)-1H-indazol-3-yl]methyl}-2-oxo-1-oxa-3,8-diazaspiro[4.5]dec-3-yl)benzoic acid, TFA salt], the IC50 was determined as 68.1 nM.

Consider `CCCn1nc(CN2CCC3(CC2)CN(c2ccc(C(=O)O)cc2)C(=O)O3)c2ccc(C#N)cc21` [Example 6-7, 4-{8-[(6-Cyano-1-propyl-1H-indazol-3-yl)methyl]-2-oxo-1-oxa-3,8-diazaspiro[4.5]dec-3-yl}benzoic acid, TFA salt], for which the IC50 amounted to 1200 nM.

Take `CC(C)n1nc(CN2CCC3(CC2)CN(c2ccc(C(=O)O)cc2)C(=O)O3)c2ccc(C(N)=O)cc21` [Example 6-8, 4-(8-{[6-Carbamoyl-1-(propan-2-yl)-1H-indazol-3-yl]methyl}-2-oxo-1-oxa-3,8-diazaspiro[4.5]dec-3-yl)benzoic acid, TFA salt]: the IC50 worked out at 1200 nM.

`CC(C)n1nc(CN2CCC3(CC2)CN(c2ccc(C(=O)O)cc2)C(=O)O3)c2ccc(C#N)cc21` [Example 6-9, 4-(8-{[6-Cyano-1-(propan-2-yl)-1H-indazol-3-yl]methyl}-2-oxo-1-oxa-3,8-diazaspiro[4.5]dec-3-yl)benzoic acid, TFA salt] had an IC50 of 121 nM.

In the case of `CC(C)(C)Cn1nc(CN2CCC3(CC2)CN(c2ccc(C(=O)O)cc2)C(=O)O3)c2cc(F)ccc21` [Example 6-10, 4-(8-{[1-(2,2-Dimethylpropyl)-5-fluoro-1H-indazol-3-yl]methyl}-2-oxo-1-oxa-3,8-diazaspiro[4.5]dec-3-yl)benzoic acid, TFA salt], the IC50 came out at 137 nM.

Regarding `COc1ccc2c(CN3CCC4(CC3)CN(c3ccc(C(=O)O)cc3)C(=O)O4)nn(CC(C)(C)C)c2c1` [Example 6-11, 4-(8-{[1-(2,2-Dimethylpropyl)-6-methoxy-1H-indazol-3-yl]methyl}-2-oxo-1-oxa-3,8-diazaspiro[4.5]dec-3-yl)benzoic acid, TFA salt], the IC50 was 410 nM.

`COc1ccc2c(CN3CCC4(CC3)CN(c3ccc(C(=O)O)cc3)C(=O)O4)nn(C3CC3)c2c1` [Example 6-12, 4-{8-[(1-Cyclopropyl-6-methoxy-1H-indazol-3-yl)methyl]-2-oxo-1-oxa-3,8-diazaspiro[4.5]dec-3-yl}benzoic acid, TFA salt] showed an IC50 of 216 nM. Compared with the last compound, the IC50 is about 1.9-fold lower.

With `COc1ccc2c(CN3CCC4(CC3)CN(c3ccc(C(=O)O)cc3)C(=O)O4)nn(-c3ccccc3)c2c1` [Example 6-13, 4-{8-[(6-Methoxy-1-phenyl-1H-indazol-3-yl)methyl]-2-oxo-1-oxa-3,8-diazaspiro[4.5]dec-3-yl}benzoic acid, TFA salt], the IC50 was 185 nM. This IC50 and that of the compound before are within 1.5-fold of each other.

Compound `CC(C)n1nc(CN2CCC3(CC2)CN(c2ccc(C(=O)O)cc2)C(=O)O3)c2cc(OCc3ccccc3)ccc21` [Example 6-14, 4-(8-{[5-(Benzyloxy)-1-(propan-2-yl)-1H-indazol-3-yl]methyl}-2-oxo-1-oxa-3,8-diazaspiro[4.5]dec-3-yl)benzoic acid, TFA salt] showed an IC50 of 0.26 nM. Against the preceding compound, the IC50 is about 710-fold lower.

In turn, `COc1ccc2c(CN3CCC4(CC3)CN(c3ccc(C(=O)O)cc3)C(=O)O4)nn(CC(=O)C(C)(C)C)c2c1` [Example 6-15, 4-(8-{[1-(3,3-Dimethyl-2-oxobutyl)-6-methoxy-1H-indazol-3-yl]methyl}-2-oxo-1-oxa-3,8-diazaspiro[4.5]dec-3-yl)benzoic acid, TFA salt] had an IC50 of 1200 nM.

Consider `COc1ccc2c(CN3CCC4(CC3)CN(c3ccc(C(=O)O)cc3)C(=O)O4)cn(C(C)C)c2c1` [Example 6-16, 4-(8-{[6-Methoxy-1-(propan-2-yl)-1H-indol-3-yl]methyl}-2-oxo-1-oxa-3,8-diazaspiro[4.5]dec-3-yl)benzoic acid, TFA salt], for which the IC50 turned out to be 0.851 nM.

For `CC(C)(C)n1nc(CN2CCC3(CC2)CN(c2ccc(C(=O)O)cc2)C(=O)O3)c2cc(Cl)c(F)cc21` [Example 6-17, 4-{8-[(1-tert-Butyl-5-chloro-6-fluoro-1H-indazol-3-yl)methyl]-2-oxo-1-oxa-3,8-diazaspiro[4.5]dec-3-yl}benzoic acid, TFA salt], the IC50 came to 61.6 nM.

Regarding `CC(C)n1cc(CN2CCC3(CC2)CN(c2ccc(C(=O)O)cc2)C(=O)O3)c2c(OCc3ccccc3)cccc21` [Example 6-18, 4-(8-{[4-(Benzyloxy)-1-(propan-2-yl)-1H-indol-3-yl]methyl}-2-oxo-1-oxa-3,8-diazaspiro[4.5]dec-3-yl)benzoic acid, TFA salt], the IC50 came to 0.225 nM.

`COc1ccc2c(CN3CCC4(CC3)CN(c3ccc(C(=O)O)cc3)C(=O)O4)cn(C)c2c1` [Example 6-19, 4-{8-[(6-Methoxy-1-methyl-1H-indol-3-yl)methyl]-2-oxo-1-oxa-3,8-diazaspiro[4.5]dec-3-yl}benzoic acid, TFA salt] registered an IC50 of 6.79 nM.

In the case of `CCCn1cc(CN2CCC3(CC2)CN(c2ccc(C(=O)O)cc2)C(=O)O3)c2ccc(OC)cc21` [Example 6-20, 4-{8-[(6-Methoxy-1-propyl-1H-indol-3-yl)methyl]-2-oxo-1-oxa-3,8-diazaspiro[4.5]dec-3-yl}benzoic acid, TFA salt], the IC50 came out at 1.06 nM.

For `CCCCn1cc(CN2CCC3(CC2)CN(c2ccc(C(=O)O)cc2)C(=O)O3)c2ccc(OC)cc21` [Example 6-21, 4-{8-[(6-Methoxy-1-butyl-1H-indol-3-yl)methyl]-2-oxo-1-oxa-3,8-diazaspiro[4.5]dec-3-yl}benzoic acid, TFA salt], the IC50 was found to be 11.7 nM.

`COc1ccc2c(CN3CCC4(CC3)CN(c3ccc(C(=O)O)cc3)C(=O)O4)c[nH]c2c1` [Example 6-22, 4-{8-[(6-Methoxy-1H-indol-3-yl)methyl]-2-oxo-1-oxa-3,8-diazaspiro[4.5]dec-3-yl}benzoic acid, TFA salt] yielded an IC50 of 8.64 nM.
